Like-named read-outs stand apart in the source and are kept apart here.
Tests used:
ST30 = test: RT-CES cell proliferation inhibition, ST30; format: cell-based; settings: Homo sapiens
Excerpt: (§1) The biological activity of compounds disclosed herein was monitored and profiled using the Real-Time Cell Electronic Sensing (RT-CES®) system from ACEA Biosciences, Inc. The RT-CES system utilizes cell-substrate impedance technology to monitor cellular behavior inside tissue culture wells in a microtiter plate format. The technology features in the integration of molecular and cell biology with microelectronics and is based on the electronic detection of biological assay process. The details of this cell electronic sensing technology and associated devices, systems and methods of use as described in U.S. provisional application No. 60/379,749, filed on Jul. […]
(§2) For measurement of cell-substrate or cell-electrode impedance using RT-CES technology, microelectrodes having appropriate geometries are fabricated onto the bottom surfaces of microtiter plate or similar device, facing into the wells. […] When there are changes to the biological status of the cells analogue electronic readout signals are measured automatically and in real time, and are converted to digital signals for processing and for analysis. In a RT-CES system, a cell index (arbitrary representation of change in impedance) is automatically derived and provided based on measured electrode impedance values. […]
(§3) To quantify cell status based on the measured cell-electrode impedance, a parameter termed Cell Index is derived. […]

MDCK = test: RT-CES cell proliferation inhibition, MDCK; format: cell-based, Monkey; settings: Canis lupus familiaris
Excerpt: as §1, §2, §3

Panc-1 = test: RT-CES cell proliferation inhibition, Panc-1; format: cell-based; settings: Homo sapiens
Excerpt: as §1, §2, §3

GTL16 = test: RT-CES cell proliferation inhibition, GTL16; format: cell-based; settings: Homo sapiens, GTL 16
Excerpt: as §1, §2, §3

SH-SY5Y = test: RT-CES cell proliferation inhibition, SH-SY5Y; format: cell-based; settings: Homo sapiens
Excerpt: as §1, §2, §3

MCF7adr = test: RT-CES cell proliferation inhibition, MCF7adr; format: cell-based; settings: Homo sapiens, NCI/ADR-RES
Excerpt: as §1, §2, §3

HT29 = test: RT-CES cell proliferation inhibition, HT29; format: cell-based; settings: Homo sapiens, HT-29
Excerpt: as §1, §2, §3

H460 = test: RT-CES cell proliferation inhibition, H460; format: cell-based; settings: Homo sapiens, NCI-H460
Excerpt: as §1, §2, §3

3T3 = test: RT-CES cell proliferation inhibition, 3T3; format: cell-based; settings: Mus musculus, NIH3T3
Excerpt: as §1, §2, §3

MKN45 = test: RT-CES cell proliferation inhibition, MKN45; format: cell-based; settings: Homo sapiens, MKN-45
Excerpt: as §1, §2, §3

PC3 = test: RT-CES cell proliferation inhibition, PC3; format: cell-based; settings: Homo sapiens, PC-3
Excerpt: as §1, §2, §3

KB200 = test: RT-CES cell proliferation inhibition, KB200; format: cell-based; settings: Homo sapiens
Excerpt: as §1, §2, §3

Jurkat = test: RT-CES cell proliferation inhibition, Jurkat; format: cell-based; settings: Homo sapiens, 24 hrs
Excerpt: as §1, §2, §3

HepG2 = test: RT-CES cell proliferation inhibition, HepG2; format: cell-based; settings: Homo sapiens
Excerpt: as §1, §2, §3

HT1080 = test: RT-CES cell proliferation inhibition, HT1080; format: cell-based; settings: Homo sapiens, HT-1080
Excerpt: as §1, §2, §3

SMILES: Br.CCOc1ccc(Nc2nc(-c3c(C)nc4sccn34)cs2)cc1 [Compound 27, 2-(4-ethoxyphenyl)amino-4-(6-methylimidazo[2,1-b]thiazol-5-yl)thiazole]
- IC50 (ST30; ST30, 24 hrs, read-out: IC50 (24 hr)): 38.8 nM
- IC50 (ST30; ST30, 48 hrs, read-out: IC50 (48 hr)): 42.4 nM
- IC50 (MDCK; 24 hrs, read-out: IC50 (24 hr)): 930 nM
- IC50 (MDCK; 48 hrs, read-out: IC50 (48 hr)): 1870 nM
- IC50 (Panc-1; Panc-1, 24 hrs, read-out: IC50 (24 hr)): 113 nM
- IC50 (Panc-1; Panc-1, 48 hrs, read-out: IC50 (48 hr)): 426 nM
- IC50 (GTL16; GTL16, 24 hrs, read-out: IC50 (24 hr)): 138 nM
- IC50 (GTL16; GTL16, 48 hrs, read-out: IC50 (48 hr)): 2.1 nM
- IC50 (SH-SY5Y; 24 hrs, read-out: IC50 (24 hr)): 13.4 nM
- IC50 (SH-SY5Y; 48 hrs, read-out: IC50 (48 hr)): 6.7 nM
- IC50 (MCF7adr; 24 hrs, read-out: IC50 (24 hr)): 12.3 nM
- IC50 (MCF7adr; 48 hrs, read-out: IC50 (48 hr)): 12.5 nM
- IC50 (HT29; HT29, 24 hrs, read-out: IC50 (24 hr)): 53.6 nM
- IC50 (HT29; HT29, 48 hrs, read-out: IC50 (48 hr)): 58.8 nM
- IC50 (H460; H460, 24 hrs after compound treatment, read-out: IC50 (24 hr)): 12.3 nM
- IC50 (H460; H460, 48 hrs after compound treatment, read-out: IC50 (48 hr)): 16 nM
- IC50 (3T3; 3T3, 24 hrs, read-out: IC50 (24 hr)): 20.6 nM
- IC50 (3T3; 3T3, 48 hrs, read-out: IC50 (48 hr)): 51.5 nM
- IC50 (MKN45; MKN45, 24 hrs, read-out: IC50 (24 hr)): > 200 nM
- IC50 (MKN45; MKN45, 48 hrs, read-out: IC50 (48 hr)): > 200 nM
- IC50 (PC3; PC3, 24 hrs, read-out: IC50 (24 hr)): 10.9 nM
- IC50 (PC3; PC3, 48 hrs, read-out: IC50 (48 hr)): 5.37 nM
- IC50 (KB200; KB200, 24 hrs, read-out: IC50 (24 hr)): 12.1 nM
- IC50 (KB200; KB200, 48 hrs, read-out: IC50 (48 hr)): 4.28 nM
- IC50 (Jurkat): 45.4 nM
- IC50 (HepG2; HepG2, 24 hrs, read-out: IC50 (24 hr)): > 200 nM
- IC50 (HepG2; HepG2, 48 hrs, read-out: IC50 (48 hr)): > 200 nM
- IC50 (HT1080; HT1080, 24 hrs, read-out: IC50 (24 hr)): 2.39 nM
- IC50 (HT1080; HT1080, 48 hrs, read-out: IC50 (48 hr)): 2.69 nM

From patent publication US8252822B2, “Heterocyclic compounds and uses as anticancer agents” (Acea Biosciences, Inc., priority 2007, dated 2012)
